Measurements: ChEMBL document CHEMBL4002586, “Aurone Mannich base derivatives as promising multifunctional agents with acetylcholinesterase inhibition, anti-β-amyloid aggragation and neuroprotective properties for the treatment of Alzheimer's disease” (Eur J Med Chem, 2017)

molecular target: T1, Amine oxidase [flavin-containing] A (Homo sapiens, UniProt P21397); assay: Inhibition of recombinant human MAO-A expressed in baculovirus infected BTI insect cells at 10 uM using kynuramine as substrate incubated for 30 mins by fluorescence assay relative to control; settings: 0.5 h
T1 sequence (P21397 whole entry): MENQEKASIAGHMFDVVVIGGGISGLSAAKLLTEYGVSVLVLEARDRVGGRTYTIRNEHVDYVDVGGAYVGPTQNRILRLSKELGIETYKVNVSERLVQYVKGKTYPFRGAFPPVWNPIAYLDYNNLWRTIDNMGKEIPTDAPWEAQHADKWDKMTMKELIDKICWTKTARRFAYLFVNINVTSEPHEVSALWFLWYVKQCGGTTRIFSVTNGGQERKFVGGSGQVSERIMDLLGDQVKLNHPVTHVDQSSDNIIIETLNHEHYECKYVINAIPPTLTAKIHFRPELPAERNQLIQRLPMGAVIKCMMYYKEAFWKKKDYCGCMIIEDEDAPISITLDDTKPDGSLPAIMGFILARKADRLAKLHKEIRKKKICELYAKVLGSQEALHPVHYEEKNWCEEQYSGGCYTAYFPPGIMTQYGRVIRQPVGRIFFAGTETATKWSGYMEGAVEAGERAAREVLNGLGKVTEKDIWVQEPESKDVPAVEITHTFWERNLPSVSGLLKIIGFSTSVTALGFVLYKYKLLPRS

**Q.** For `COc1cc2c(cc1OC)C(=O)/C(=C/c1ccc(O)cc1)O2`, which inhibition at 10 µM is on record?
**A.** The inhibition at 10 µM was 12.1%.

**Q.** For `CCN(Cc1ccccc1)Cc1ccc(/C=C2\Oc3cc(OC)c(OC)cc3C2=O)cc1O`, which inhibition at 10 µM is on record?
**A.** Its inhibition at 10 µM is 17%.

**Q.** With `COc1cc2c(cc1OC)C(=O)/C(=C/c1ccc(CN(C)C)c(O)c1)O2` as the molecule, how does the inhibition at 10 µM read?
**A.** The inhibition at 10 µM was 20.2%.

**Q.** Which inhibition at 10 µM does the source give for `COc1ccccc1CN(C)Cc1ccc(/C=C2\Oc3cc(OC)c(OC)cc3C2=O)cc1O` here?
**A.** The inhibition at 10 µM was 16.3%.

test system: not listed separately; assay: Antioxidant activity assessed as inhibition of AAPH-induced peroxyl radical generation at 5 uM measured as trolox equivalent preincubated for 15 mins followed by AAPH addition measured every 60 secs for 90 mins by ORAC-FL assay; format: functional; settings: not given

**Q.** For `COc1cc2c(cc1OC)C(=O)/C(=C/c1ccc(O)cc1)O2`, which Activity is on record?
**A.** The Activity was 1.52 equiv.

**Q.** With `CCN(Cc1ccccc1)Cc1ccc(/C=C2\Oc3cc(OC)c(OC)cc3C2=O)cc1O` as the molecule, how does the Activity read?
**A.** Its Activity is 1.17 equiv.

**Q.** For `COc1cc2c(cc1OC)C(=O)/C(=C/c1ccc(CN(C)C)c(O)c1)O2`, which Activity is on record?
**A.** The Activity was 2.02 equiv.

**Q.** With `COc1ccccc1CN(C)Cc1ccc(/C=C2\Oc3cc(OC)c(OC)cc3C2=O)cc1O` as the molecule, how does the Activity read?
**A.** The Activity was 1.35 equiv.

molecular target: Acetylcholinesterase (Electrophorus electricus, UniProt O42275); assay: Inhibition of Electrophorus electricus AChE using acetylthiocholine iodide as substrate measured after 15 mins by Ellman's method; settings: not given
Sequence (O42275 whole entry): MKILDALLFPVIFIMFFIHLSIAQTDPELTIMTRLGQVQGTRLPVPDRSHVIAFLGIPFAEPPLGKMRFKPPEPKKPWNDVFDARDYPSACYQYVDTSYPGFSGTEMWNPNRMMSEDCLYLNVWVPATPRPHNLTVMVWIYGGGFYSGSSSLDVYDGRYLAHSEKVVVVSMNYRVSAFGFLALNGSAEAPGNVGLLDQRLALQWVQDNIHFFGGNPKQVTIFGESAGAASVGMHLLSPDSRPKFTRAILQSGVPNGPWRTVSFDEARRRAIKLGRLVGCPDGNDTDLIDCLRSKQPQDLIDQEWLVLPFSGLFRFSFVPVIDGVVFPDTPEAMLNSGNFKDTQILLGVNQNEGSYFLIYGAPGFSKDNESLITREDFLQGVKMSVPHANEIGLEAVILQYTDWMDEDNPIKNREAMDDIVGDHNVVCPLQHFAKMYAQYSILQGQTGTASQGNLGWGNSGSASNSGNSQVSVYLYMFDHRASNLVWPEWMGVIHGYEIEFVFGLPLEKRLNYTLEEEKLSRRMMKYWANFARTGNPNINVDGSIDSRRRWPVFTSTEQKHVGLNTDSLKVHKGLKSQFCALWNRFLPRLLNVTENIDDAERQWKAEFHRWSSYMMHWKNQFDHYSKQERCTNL

**Q.** Which IC50 does the source give for `COc1cc2c(cc1OC)C(=O)/C(=C/c1ccc(O)cc1)O2` here?
**A.** The IC50 was 64.4 µM.

**Q.** With `CCN(Cc1ccccc1)Cc1ccc(/C=C2\Oc3cc(OC)c(OC)cc3C2=O)cc1O` as the molecule, how does the IC50 read?
**A.** Its IC50 is 35.8 µM.

**Q.** Which IC50 does the source give for `COc1cc2c(cc1OC)C(=O)/C(=C/c1ccc(CN(C)C)c(O)c1)O2` here?
**A.** The IC50 was 8.93 µM.

**Q.** Which IC50 does the source give for `COc1ccccc1CN(C)Cc1ccc(/C=C2\Oc3cc(OC)c(OC)cc3C2=O)cc1O` here?
**A.** Its IC50 is 28.9 µM.

molecular target: T2, Acetylcholinesterase (Rattus norvegicus, UniProt P37136); assay: Inhibition of AChE in rat brain cortex homogenates using acetylthiocholine iodide as substrate in presence of BuChE inhibitor tetraisopropyl pyrophosphoramide measured after 15 mins by Ellman's method; settings: not given
T2 sequence (P37136 whole entry): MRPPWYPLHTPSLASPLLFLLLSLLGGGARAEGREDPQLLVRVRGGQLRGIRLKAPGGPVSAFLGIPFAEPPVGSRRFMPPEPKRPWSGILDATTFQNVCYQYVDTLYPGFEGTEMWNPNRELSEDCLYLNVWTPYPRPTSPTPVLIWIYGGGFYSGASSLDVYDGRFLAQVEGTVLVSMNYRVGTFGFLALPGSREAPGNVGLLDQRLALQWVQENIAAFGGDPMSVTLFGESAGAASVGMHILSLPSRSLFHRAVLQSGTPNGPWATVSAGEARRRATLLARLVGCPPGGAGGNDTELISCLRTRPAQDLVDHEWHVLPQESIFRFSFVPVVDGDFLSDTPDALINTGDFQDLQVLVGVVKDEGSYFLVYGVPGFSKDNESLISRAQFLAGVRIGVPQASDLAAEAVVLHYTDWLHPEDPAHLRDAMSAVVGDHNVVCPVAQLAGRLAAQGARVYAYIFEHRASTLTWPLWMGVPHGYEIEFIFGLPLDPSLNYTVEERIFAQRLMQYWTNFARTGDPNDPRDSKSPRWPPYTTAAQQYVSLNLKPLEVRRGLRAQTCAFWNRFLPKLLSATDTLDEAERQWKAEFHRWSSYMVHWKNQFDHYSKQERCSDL

**Q.** Which IC50 does the source give for `COc1cc2c(cc1OC)C(=O)/C(=C/c1ccc(O)cc1)O2` here?
**A.** Its IC50 is 297 µM.

**Q.** For `CCN(Cc1ccccc1)Cc1ccc(/C=C2\Oc3cc(OC)c(OC)cc3C2=O)cc1O`, which IC50 is on record?
**A.** Its IC50 is 94.1 µM.

**Q.** For `COc1cc2c(cc1OC)C(=O)/C(=C/c1ccc(CN(C)C)c(O)c1)O2`, which IC50 is on record?
**A.** Its IC50 is 25.8 µM.

**Q.** Which IC50 does the source give for `COc1ccccc1CN(C)Cc1ccc(/C=C2\Oc3cc(OC)c(OC)cc3C2=O)cc1O` here?
**A.** The IC50 was 74.4 µM.

molecular target: Acetylcholinesterase (Homo sapiens, UniProt P22303); assay: Inhibition of human erythrocyte AChE using acetylthiocholine iodide as substrate measured after 15 mins by Ellman's method; settings: not given
Sequence (P22303 whole entry): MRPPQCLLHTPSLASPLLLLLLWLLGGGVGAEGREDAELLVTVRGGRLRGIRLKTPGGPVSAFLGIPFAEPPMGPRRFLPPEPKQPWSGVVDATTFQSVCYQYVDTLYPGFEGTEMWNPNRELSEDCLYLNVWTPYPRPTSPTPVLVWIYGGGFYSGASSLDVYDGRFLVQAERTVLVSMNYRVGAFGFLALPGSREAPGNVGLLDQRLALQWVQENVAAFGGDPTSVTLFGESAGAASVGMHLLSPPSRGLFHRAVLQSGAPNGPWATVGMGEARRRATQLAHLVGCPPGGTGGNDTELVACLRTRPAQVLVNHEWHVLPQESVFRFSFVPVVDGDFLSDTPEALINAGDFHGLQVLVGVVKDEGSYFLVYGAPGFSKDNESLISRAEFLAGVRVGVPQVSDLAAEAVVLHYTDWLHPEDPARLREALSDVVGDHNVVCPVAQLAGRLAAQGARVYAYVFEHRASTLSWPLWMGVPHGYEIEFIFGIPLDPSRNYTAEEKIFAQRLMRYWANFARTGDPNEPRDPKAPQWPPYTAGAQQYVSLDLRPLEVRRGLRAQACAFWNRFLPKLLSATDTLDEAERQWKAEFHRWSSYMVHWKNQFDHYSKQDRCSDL

**Q.** With `COc1cc2c(cc1OC)C(=O)/C(=C/c1ccc(CN(C)C)c(O)c1)O2` as the molecule, how does the IC50 read?
**A.** Its IC50 is 24.3 µM.

molecular target: Amyloid-beta precursor protein (Homo sapiens) (UniProt P05067); assay: Inhibition of self-induced aggregation of HFIP-treated human amyloid beta (1 to 42 residues) at 25 uM after 24 hrs by thioflavin T-based fluorometric assay relative to control; settings: not given
Sequence (P05067 whole entry, the tested form may be a part): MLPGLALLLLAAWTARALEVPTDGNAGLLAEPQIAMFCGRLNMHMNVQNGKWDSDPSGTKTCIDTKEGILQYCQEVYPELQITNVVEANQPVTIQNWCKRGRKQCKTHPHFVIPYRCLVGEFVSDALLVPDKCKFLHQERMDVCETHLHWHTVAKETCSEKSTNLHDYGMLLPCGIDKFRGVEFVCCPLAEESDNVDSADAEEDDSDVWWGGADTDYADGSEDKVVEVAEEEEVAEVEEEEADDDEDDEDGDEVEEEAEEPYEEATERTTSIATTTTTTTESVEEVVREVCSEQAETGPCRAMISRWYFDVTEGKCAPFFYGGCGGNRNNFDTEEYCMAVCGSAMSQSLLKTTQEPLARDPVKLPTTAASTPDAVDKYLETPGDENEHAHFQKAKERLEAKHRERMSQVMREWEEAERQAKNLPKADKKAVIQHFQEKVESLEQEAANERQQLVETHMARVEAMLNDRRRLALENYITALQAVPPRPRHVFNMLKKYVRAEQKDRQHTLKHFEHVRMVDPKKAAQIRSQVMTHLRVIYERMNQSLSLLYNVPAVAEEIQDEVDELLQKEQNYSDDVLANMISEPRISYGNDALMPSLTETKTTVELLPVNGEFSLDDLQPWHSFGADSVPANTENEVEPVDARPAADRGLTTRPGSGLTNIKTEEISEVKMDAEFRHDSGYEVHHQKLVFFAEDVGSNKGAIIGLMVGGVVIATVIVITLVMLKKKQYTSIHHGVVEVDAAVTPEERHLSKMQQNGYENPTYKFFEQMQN

**Q.** Which inhibition does the source give for `COc1cc2c(cc1OC)C(=O)/C(=C/c1ccc(O)cc1)O2` here?
**A.** The inhibition was 15.7%.

**Q.** Which inhibition does the source give for `CCN(Cc1ccccc1)Cc1ccc(/C=C2\Oc3cc(OC)c(OC)cc3C2=O)cc1O` here?
**A.** Its inhibition is 72.5%.

**Q.** With `COc1cc2c(cc1OC)C(=O)/C(=C/c1ccc(CN(C)C)c(O)c1)O2` as the molecule, how does the inhibition read?
**A.** Its inhibition is 46.9%.

**Q.** Which inhibition does the source give for `COc1ccccc1CN(C)Cc1ccc(/C=C2\Oc3cc(OC)c(OC)cc3C2=O)cc1O` here?
**A.** The inhibition was 55.1%.

molecular target: butyrylcholinesterase (BuChE) (Rattus norvegicus, UniProt Q9JKC1); assay: Inhibition of BuChE in rat serum at 50 uM using butyrylthiocholine as substrate measured after 15 mins by Ellman's method relative to control; settings: probe butyrylthiocholine
Sequence (Q9JKC1 whole entry): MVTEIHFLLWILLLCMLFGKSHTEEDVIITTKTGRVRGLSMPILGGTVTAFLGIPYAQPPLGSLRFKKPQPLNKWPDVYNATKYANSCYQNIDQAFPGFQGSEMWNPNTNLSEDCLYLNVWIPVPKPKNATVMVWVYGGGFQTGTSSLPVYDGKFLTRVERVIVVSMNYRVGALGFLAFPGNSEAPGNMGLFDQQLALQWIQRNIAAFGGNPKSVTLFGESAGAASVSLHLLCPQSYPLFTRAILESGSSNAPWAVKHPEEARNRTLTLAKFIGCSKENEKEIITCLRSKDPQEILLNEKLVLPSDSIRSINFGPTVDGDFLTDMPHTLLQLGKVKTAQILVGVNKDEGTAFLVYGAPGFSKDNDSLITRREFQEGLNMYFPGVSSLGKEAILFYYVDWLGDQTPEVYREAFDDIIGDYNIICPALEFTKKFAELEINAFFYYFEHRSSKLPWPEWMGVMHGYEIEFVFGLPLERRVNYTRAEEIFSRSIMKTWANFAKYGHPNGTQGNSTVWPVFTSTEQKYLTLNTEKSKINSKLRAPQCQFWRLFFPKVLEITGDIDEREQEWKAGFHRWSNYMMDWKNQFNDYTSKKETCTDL

**Q.** For `COc1cc2c(cc1OC)C(=O)/C(=C/c1ccc(O)cc1)O2`, which inhibition at 0.25 h, 50 µM is on record?
**A.** The inhibition at 0.25 h, 50 µM was under 5%.

**Q.** With `CCN(Cc1ccccc1)Cc1ccc(/C=C2\Oc3cc(OC)c(OC)cc3C2=O)cc1O` as the molecule, how does the inhibition at 0.25 h, 50 µM read?
**A.** Its inhibition at 0.25 h, 50 µM is under 5%.

**Q.** Which inhibition at 0.25 h, 50 µM does the source give for `COc1cc2c(cc1OC)C(=O)/C(=C/c1ccc(CN(C)C)c(O)c1)O2` here?
**A.** The inhibition at 0.25 h, 50 µM was under 5%.

**Q.** Which inhibition at 0.25 h, 50 µM does the source give for `COc1ccccc1CN(C)Cc1ccc(/C=C2\Oc3cc(OC)c(OC)cc3C2=O)cc1O` here?
**A.** The inhibition at 0.25 h, 50 µM was under 5%.

molecular target: T3, Amine oxidase [flavin-containing] B (Homo sapiens, UniProt P27338); assay: Inhibition of recombinant human MAO-B expressed in baculovirus infected BTI insect cells at 10 uM using kynuramine as substrate incubated for 30 mins by fluorescence assay relative to control; settings: 0.5 h
T3 sequence (P27338 whole entry): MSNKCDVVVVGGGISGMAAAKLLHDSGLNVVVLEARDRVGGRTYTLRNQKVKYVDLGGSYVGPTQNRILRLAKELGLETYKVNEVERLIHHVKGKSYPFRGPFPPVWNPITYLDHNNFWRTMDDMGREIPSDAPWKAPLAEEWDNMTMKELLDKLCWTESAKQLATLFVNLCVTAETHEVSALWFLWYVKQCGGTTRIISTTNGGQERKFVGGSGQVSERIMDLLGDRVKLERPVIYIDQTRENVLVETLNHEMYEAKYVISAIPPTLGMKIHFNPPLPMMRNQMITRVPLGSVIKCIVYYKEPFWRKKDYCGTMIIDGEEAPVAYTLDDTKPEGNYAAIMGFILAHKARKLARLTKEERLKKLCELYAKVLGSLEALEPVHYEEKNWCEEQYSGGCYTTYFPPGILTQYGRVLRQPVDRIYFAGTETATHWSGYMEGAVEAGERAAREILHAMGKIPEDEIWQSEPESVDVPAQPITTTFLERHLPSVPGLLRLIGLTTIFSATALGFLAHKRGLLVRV

**Q.** For `COc1cc2c(cc1OC)C(=O)/C(=C/c1ccc(O)cc1)O2`, which inhibition at 10 µM is on record?
**A.** Its inhibition at 10 µM is 36.1%.

**Q.** Which inhibition at 10 µM does the source give for `CCN(Cc1ccccc1)Cc1ccc(/C=C2\Oc3cc(OC)c(OC)cc3C2=O)cc1O` here?
**A.** Its inhibition at 10 µM is 23.9%.

**Q.** Which inhibition at 10 µM does the source give for `COc1cc2c(cc1OC)C(=O)/C(=C/c1ccc(CN(C)C)c(O)c1)O2` here?
**A.** Its inhibition at 10 µM is 2.23%.

**Q.** For `COc1ccccc1CN(C)Cc1ccc(/C=C2\Oc3cc(OC)c(OC)cc3C2=O)cc1O`, which inhibition at 10 µM is on record?
**A.** The inhibition at 10 µM was 8.4%.

test system: not listed separately; assay: Inhibition of Cu2+-mediated aggregation of human amyloid beta (1 to 42 residues) at 25 uM after 24 hrs by thioflavin T-based fluorometric assay relative to control; format: functional; settings: not given

**Q.** Which inhibition does the source give for `COc1cc(/C=C/C(=O)CC(=O)/C=C/c2ccc(O)c(OC)c2)ccc1O` here?
**A.** Its inhibition is 67.2%.

**Q.** For `COc1cc2c(cc1OC)C(=O)/C(=C/c1ccc(O)cc1)O2`, which inhibition is on record?
**A.** The inhibition was 26.7%.

**Q.** Which inhibition does the source give for `CCN(Cc1ccccc1)Cc1ccc(/C=C2\Oc3cc(OC)c(OC)cc3C2=O)cc1O` here?
**A.** The inhibition was 60.9%.

**Q.** For `COc1cc2c(cc1OC)C(=O)/C(=C/c1ccc(CN(C)C)c(O)c1)O2`, which inhibition is on record?
**A.** The inhibition was 32.2%.

**Q.** For `COc1ccccc1CN(C)Cc1ccc(/C=C2\Oc3cc(OC)c(OC)cc3C2=O)cc1O`, which inhibition is on record?
**A.** The inhibition was 55.8%.
